Results reported in ChEMBL document CHEMBL4800731, “Data for DCP probe JNJ-65355394” (2021).
Activity calls are given as the source filed them. The rule behind the calls is not given here.

Columns and labels:
[1] = target: Beta-2 adrenergic receptor (Homo sapiens) (UniProt P07550); conditions: Compound concentration 10.0 uM
[2] = target: T1, Alpha-1B adrenergic receptor (Homo sapiens) (UniProt P35368); conditions: Compound concentration 10.0 uM
T1 sequence (whole entry): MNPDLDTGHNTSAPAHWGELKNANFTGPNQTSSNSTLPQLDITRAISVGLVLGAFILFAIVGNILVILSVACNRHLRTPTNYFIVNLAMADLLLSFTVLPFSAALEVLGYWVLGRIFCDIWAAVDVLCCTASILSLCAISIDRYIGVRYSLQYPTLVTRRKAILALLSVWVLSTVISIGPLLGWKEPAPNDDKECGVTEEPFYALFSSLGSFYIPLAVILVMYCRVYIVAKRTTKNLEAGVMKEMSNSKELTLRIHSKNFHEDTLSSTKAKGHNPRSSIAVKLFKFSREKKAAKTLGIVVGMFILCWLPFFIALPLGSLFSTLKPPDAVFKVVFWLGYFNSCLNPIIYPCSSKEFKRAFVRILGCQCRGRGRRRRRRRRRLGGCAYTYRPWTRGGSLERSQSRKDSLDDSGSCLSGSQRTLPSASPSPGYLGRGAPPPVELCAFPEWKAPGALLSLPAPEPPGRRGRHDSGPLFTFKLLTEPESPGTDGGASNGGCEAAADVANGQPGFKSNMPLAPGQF

[3] = target: Adenosine receptor A2a (Homo sapiens) (UniProt P29274); experiment: hA2A Cerep panel
[4] = target: 5-hydroxytryptamine receptor 1B (Homo sapiens) (UniProt P28222); conditions: Compound concentration 10.0 uM
Sequence of 5-hydroxytryptamine receptor 1B (Homo sapiens) (P28222 whole entry): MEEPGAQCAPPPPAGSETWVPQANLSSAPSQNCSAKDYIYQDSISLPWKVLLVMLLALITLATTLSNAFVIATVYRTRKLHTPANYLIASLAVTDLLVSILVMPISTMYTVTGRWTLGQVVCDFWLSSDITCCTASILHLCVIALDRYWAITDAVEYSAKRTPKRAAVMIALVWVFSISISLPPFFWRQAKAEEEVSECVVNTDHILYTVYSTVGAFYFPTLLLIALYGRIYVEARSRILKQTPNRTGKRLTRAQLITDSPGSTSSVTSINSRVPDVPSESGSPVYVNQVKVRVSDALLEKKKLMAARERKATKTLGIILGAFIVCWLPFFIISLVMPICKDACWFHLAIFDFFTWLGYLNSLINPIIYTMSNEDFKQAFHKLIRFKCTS

[5] = target: Endothelin-1 receptor (Homo sapiens) (UniProt P25101); experiment: hETA Cerep panel
Sequence of Endothelin-1 receptor (Homo sapiens) (P25101 whole entry): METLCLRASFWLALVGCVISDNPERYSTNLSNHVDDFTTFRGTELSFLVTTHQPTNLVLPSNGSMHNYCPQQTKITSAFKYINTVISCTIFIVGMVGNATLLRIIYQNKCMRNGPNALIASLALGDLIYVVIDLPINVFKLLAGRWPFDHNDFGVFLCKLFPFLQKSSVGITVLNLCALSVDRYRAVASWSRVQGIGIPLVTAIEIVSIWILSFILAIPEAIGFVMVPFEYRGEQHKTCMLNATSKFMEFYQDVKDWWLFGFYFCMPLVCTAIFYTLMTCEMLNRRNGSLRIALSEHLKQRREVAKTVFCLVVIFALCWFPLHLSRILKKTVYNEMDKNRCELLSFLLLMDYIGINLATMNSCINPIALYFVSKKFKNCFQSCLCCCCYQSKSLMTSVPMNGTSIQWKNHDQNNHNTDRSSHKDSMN

[6] = target: Histamine H1 receptor (Homo sapiens) (UniProt P35367); conditions: Compound concentration 10.0 uM
Sequence of Histamine H1 receptor (Homo sapiens) (P35367 whole entry): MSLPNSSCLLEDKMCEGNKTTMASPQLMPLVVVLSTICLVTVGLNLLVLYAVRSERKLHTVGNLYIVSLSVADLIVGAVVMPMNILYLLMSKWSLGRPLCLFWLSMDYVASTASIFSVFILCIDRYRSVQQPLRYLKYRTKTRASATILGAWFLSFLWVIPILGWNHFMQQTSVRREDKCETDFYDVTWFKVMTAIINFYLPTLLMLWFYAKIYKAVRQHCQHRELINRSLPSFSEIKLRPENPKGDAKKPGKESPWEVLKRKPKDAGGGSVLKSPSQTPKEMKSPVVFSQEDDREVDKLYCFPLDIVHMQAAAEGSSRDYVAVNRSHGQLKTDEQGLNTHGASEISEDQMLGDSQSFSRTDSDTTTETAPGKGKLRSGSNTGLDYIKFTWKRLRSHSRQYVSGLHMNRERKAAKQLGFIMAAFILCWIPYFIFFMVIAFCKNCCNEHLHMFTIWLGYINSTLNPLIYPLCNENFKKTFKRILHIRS

[7] = target: Sodium-dependent serotonin transporter (Homo sapiens, UniProt P31645); experiment: h5HTT Cerep panel
Protein O-GlcNAcase = target: T2, Protein O-GlcNAcase (Homo sapiens, UniProt O60502); experiment: Fluorescence-based enzymatic assay
T2 sequence (O60502 whole entry): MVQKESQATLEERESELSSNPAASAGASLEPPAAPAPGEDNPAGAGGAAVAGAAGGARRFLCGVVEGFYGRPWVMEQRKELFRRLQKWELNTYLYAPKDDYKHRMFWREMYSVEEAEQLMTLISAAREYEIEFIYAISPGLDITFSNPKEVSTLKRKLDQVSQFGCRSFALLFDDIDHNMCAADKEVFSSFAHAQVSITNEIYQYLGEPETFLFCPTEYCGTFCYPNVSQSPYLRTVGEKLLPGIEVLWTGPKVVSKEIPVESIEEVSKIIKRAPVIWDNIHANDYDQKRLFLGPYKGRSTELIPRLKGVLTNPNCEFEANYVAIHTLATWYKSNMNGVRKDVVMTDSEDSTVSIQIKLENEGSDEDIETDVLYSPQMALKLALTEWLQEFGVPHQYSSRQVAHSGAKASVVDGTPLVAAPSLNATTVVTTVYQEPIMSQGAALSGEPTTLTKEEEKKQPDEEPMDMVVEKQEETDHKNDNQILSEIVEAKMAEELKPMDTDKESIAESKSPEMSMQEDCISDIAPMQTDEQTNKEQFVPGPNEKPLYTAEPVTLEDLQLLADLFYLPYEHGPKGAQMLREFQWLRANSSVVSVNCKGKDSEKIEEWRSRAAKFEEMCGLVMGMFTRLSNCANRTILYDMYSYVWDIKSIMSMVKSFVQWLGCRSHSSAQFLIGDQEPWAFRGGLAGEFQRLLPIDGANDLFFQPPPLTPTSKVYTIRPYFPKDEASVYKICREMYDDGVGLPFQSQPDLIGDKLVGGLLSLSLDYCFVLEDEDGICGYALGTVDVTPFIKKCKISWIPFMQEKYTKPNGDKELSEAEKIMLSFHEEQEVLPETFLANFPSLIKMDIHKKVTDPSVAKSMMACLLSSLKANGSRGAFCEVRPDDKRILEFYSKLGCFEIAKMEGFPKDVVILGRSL

[8] = target: Histamine H2 receptor (Homo sapiens) (UniProt P25021); conditions: Compound concentration 10.0 uM
Sequence of Histamine H2 receptor (Homo sapiens) (P25021 whole entry): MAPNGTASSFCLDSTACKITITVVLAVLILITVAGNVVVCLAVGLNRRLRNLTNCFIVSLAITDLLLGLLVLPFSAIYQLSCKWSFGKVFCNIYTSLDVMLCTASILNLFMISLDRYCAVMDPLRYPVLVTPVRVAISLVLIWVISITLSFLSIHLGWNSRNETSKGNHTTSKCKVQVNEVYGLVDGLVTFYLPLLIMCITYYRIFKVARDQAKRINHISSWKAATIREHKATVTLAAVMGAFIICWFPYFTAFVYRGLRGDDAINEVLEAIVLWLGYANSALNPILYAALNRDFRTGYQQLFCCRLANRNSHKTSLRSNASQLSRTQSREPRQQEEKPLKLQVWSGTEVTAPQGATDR

[9] = target: Sodium-dependent noradrenaline transporter (Homo sapiens) (UniProt P23975); experiment: hNET Cerep panel
[10] = target: T3, 5-hydroxytryptamine receptor 3A (Homo sapiens) (UniProt P46098); conditions: Compound concentration 10.0 uM
T3 sequence (whole entry): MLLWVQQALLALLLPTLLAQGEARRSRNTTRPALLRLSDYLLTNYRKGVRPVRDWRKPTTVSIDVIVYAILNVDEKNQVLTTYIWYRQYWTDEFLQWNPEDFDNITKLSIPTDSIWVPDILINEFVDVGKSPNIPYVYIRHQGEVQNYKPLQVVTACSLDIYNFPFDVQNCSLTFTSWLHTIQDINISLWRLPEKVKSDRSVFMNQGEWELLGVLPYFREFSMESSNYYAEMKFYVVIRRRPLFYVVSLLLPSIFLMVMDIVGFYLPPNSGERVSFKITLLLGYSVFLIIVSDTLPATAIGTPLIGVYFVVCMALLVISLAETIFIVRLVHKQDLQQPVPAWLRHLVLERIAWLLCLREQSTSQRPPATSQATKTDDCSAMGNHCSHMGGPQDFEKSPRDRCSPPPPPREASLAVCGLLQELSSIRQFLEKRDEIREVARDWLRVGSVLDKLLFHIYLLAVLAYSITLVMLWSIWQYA

[11] = target: 5-hydroxytryptamine receptor 5A (Homo sapiens) (UniProt P47898); experiment: h5HT5A Cerep panel
[12] = target: Alpha-1A adrenergic receptor (Rattus norvegicus) (UniProt P43140); experiment: rAa1 Cerep panel
[13] = target: Sigma non-opioid intracellular receptor 1 (Homo sapiens, UniProt Q99720); conditions: Compound concentration 10.0 uM
Sequence of Sigma non-opioid intracellular receptor 1 (Q99720 whole entry): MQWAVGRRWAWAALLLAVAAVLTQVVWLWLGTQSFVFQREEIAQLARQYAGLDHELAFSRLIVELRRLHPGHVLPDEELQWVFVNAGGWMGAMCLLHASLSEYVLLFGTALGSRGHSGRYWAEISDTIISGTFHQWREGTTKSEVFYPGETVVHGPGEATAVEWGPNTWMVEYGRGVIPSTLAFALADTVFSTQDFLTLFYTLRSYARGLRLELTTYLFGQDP

[14] = target: Histamine H3 receptor (Homo sapiens) (UniProt Q9Y5N1); conditions: Compound concentration 10.0 uM
Sequence of Histamine H3 receptor (Homo sapiens) (Q9Y5N1 whole entry): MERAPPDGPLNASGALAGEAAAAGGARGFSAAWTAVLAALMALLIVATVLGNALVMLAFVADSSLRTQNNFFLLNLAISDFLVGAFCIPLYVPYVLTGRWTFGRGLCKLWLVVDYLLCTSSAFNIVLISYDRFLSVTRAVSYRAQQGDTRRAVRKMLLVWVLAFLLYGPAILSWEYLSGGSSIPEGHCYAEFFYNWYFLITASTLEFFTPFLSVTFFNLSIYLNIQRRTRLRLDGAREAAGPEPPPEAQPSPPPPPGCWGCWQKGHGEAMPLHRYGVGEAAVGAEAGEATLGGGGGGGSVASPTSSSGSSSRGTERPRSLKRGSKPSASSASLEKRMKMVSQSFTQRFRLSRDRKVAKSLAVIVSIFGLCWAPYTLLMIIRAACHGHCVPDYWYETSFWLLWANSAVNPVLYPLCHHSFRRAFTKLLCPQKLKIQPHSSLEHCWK

[15] = target: Delta-type opioid receptor (Homo sapiens) (UniProt P41143); conditions: Compound concentration 10.0 uM
Sequence of Delta-type opioid receptor (Homo sapiens) (P41143 whole entry): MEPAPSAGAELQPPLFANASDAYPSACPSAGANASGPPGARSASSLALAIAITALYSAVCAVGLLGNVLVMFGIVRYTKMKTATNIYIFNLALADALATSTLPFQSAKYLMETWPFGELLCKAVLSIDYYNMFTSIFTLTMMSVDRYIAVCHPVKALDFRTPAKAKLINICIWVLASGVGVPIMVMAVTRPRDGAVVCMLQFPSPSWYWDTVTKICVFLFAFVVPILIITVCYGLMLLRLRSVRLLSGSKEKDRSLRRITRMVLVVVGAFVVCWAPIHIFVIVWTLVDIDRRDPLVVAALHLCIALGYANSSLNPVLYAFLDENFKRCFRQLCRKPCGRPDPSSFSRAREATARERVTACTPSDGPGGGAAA

[16] = target: Substance-K receptor (Homo sapiens) (UniProt P21452); experiment: hNK2 Cerep panel
[17] = target: Kappa-type opioid receptor (Homo sapiens, UniProt P41145); conditions: Compound concentration 10.0 uM
Sequence of Kappa-type opioid receptor (P41145 whole entry): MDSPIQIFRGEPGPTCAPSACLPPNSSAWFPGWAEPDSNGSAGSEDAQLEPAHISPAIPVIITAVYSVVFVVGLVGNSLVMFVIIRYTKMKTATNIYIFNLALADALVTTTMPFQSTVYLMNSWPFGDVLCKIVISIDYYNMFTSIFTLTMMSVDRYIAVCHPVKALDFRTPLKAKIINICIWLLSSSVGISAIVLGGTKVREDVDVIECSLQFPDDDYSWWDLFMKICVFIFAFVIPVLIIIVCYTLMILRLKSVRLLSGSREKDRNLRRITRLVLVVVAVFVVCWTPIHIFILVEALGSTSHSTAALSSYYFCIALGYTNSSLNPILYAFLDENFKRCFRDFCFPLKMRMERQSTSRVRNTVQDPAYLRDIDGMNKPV

Rattus norvegicus = organism: Rattus norvegicus; experiment: rCaCH (D888) Cerep panel
[18] = target: Alpha-1A adrenergic receptor (Homo sapiens) (UniProt P35348); conditions: Compound concentration 10.0 uM
Sequence of Alpha-1A adrenergic receptor (Homo sapiens) (P35348 whole entry): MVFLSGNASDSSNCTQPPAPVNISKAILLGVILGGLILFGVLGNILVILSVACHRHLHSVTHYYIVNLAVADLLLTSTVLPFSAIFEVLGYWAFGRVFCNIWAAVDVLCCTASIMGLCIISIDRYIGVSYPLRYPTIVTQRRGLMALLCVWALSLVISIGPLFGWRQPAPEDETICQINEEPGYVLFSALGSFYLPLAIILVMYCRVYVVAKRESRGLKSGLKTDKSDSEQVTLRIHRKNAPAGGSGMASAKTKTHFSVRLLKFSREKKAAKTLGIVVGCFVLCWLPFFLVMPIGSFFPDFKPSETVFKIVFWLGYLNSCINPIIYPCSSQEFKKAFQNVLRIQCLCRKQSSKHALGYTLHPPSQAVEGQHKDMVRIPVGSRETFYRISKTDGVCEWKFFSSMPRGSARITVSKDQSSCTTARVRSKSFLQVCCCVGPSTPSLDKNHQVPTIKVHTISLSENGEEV

[19] = target: Sodium-dependent dopamine transporter (Homo sapiens, UniProt Q01959); conditions: Compound concentration 10.0 uM
Sequence of Sodium-dependent dopamine transporter (Q01959 whole entry): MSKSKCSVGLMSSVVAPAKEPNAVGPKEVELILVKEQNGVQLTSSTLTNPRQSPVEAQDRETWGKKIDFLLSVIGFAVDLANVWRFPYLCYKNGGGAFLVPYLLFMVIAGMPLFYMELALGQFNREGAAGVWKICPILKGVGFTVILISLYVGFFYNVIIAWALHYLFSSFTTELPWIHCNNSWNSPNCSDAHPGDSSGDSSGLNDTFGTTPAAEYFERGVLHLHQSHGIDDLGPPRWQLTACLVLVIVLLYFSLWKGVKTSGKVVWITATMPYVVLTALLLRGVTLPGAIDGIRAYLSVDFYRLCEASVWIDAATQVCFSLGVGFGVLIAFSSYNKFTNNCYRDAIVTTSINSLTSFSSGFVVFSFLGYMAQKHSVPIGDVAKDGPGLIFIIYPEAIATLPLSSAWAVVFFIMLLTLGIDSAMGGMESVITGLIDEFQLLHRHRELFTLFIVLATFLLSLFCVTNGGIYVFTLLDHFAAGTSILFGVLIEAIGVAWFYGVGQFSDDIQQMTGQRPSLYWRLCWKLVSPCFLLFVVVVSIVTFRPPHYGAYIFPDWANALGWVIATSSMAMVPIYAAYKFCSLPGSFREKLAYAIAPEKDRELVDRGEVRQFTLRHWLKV

[20] = target: D(1A) dopamine receptor (Homo sapiens) (UniProt P21728); experiment: hD1 Cerep panel
[21] = target: 5-hydroxytryptamine receptor 1E (Homo sapiens) (UniProt P28566); conditions: Compound concentration 10.0 uM
Sequence of 5-hydroxytryptamine receptor 1E (Homo sapiens) (P28566 whole entry): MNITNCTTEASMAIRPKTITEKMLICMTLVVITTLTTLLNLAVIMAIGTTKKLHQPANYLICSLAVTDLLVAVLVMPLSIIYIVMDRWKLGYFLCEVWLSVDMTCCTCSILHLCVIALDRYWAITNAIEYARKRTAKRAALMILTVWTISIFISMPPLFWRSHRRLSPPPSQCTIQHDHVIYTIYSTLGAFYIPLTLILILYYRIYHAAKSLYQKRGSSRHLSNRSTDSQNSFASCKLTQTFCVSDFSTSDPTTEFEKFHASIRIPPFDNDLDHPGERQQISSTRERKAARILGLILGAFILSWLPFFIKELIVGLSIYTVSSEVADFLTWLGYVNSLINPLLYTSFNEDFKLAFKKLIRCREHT

Sequence of Beta-2 adrenergic receptor (Homo sapiens) (P07550 whole entry, looked up): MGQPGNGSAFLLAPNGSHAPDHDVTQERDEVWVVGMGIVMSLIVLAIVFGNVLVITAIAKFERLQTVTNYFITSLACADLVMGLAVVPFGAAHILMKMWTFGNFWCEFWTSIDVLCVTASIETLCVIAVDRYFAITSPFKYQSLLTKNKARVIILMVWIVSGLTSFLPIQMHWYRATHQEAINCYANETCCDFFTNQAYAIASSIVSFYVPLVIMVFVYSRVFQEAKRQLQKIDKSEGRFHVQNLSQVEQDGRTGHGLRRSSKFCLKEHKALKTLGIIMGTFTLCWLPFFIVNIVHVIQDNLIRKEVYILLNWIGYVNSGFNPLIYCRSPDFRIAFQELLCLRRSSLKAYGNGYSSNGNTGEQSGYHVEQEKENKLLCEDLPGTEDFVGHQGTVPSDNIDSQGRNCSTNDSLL

Compound	inhibition [1]	inhibition [2]	inhibition [4]	inhibition [6]	IC50 (Protein O-GlcNAcase)	inhibition [10]	inhibition [13]	inhibition [14]	inhibition [15]	inhibition [17]	inhibition [18]	inhibition [19]	also measured
CC(=O)Nc1ncc(CN2CCC[C@H](Cc3cc(C)nc(C)c3)C2)s1 [JNJ-65355394]	-5.16%	-5.2%	-2.53%	44%	0.0013 µM (active)	6.87%	46.5%	10.8%	11.8%	75.1%	2.36%	13.4%	effect [3]: 4.9%; effect [5]: 3.6%; effect [7]: -7.05%; inhibition [8]: 3.45%; effect [9]: 5.75%; effect [11]: -7.65%; effect [12]: 19.5%; effect [16]: 4.5%; effect (Rattus norvegicus): 4.9%; effect [20]: 20.1%
CC(=O)Nc1nc(CN2CCC[C@H](Cc3cc(C)nc(C)c3)C2)cs1 [JNJ-73924149]	-8.1%	-3.57%	4.01%	44.2%	> 10 µM (not active)	20.7%	101%	27.1%	8.67%	17.9%	-1.89%	81.9%	inhibition [21]: 0.93%
